Data from ChEMBL document CHEMBL1201862, “PubChem BioAssay data set” (2004).
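Cells were grown in 96-well plates and exposed to each compound for 48 hours at five concentrations; endpoints were interpolated linearly between bracketing concentrations, or set to the highest concentration if not reached. Here, GI50 denotes the concentration required for 50% inhibition of growth.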 Calls of active or inactive are those of the source. Rule as the data show it: active = GI50 up to about 1.1 µM and inactive = higher.

Legend:
Experiment in all cases: NCI-60 cell line screen, 48 h
786-0 = tested on: 786-0
ACHN = tested on: ACHN
CCRF-CEM = tested on: CCRF-CEM
HCT-15 = tested on: HCT-15
HL-60 = tested on: HL-60
HT-29 = tested on: HT-29
K562 = tested on: K562
KM12 = tested on: KM12
M14 = tested on: M14
MDA-MB-231 = tested on: MDA-MB-231
OVCAR-3 = tested on: OVCAR-3
OVCAR-4 = tested on: OVCAR-4
OVCAR-5 = tested on: OVCAR-5
RXF 393 = tested on: RXF 393
SF-295 = tested on: SF-295
SF-539 = tested on: SF-539
TK-10 = tested on: TK-10
U-251 = tested on: U-251
UACC-62 = tested on: UACC-62

SMILES	GI50 (786-0)	GI50 (ACHN)	GI50 (CCRF-CEM)	GI50 (HCT-15)	GI50 (HL-60)	GI50 (HT-29)	GI50 (K562)	GI50 (KM12)	GI50 (M14)	GI50 (MDA-MB-231)	GI50 (OVCAR-3)	GI50 (OVCAR-4)	GI50 (OVCAR-5)	GI50 (RXF 393)	GI50 (SF-295)	GI50 (SF-539)	GI50 (TK-10)	GI50 (U-251)	GI50 (UACC-62)
Cc1cc(C)nc(NS(=O)(=O)c2ccc(Nc3c4ccccc4nc4ccc(C(=O)Nc5ccc(S(N)(=O)=O)cc5)cc34)cc2)n1	> 100 µM (inactive)	> 100 µM (inactive)	63.7 µM (inactive)	> 100000 nM	> 100 µM (inactive)	> 100 µM (inactive)	66.4 µM (inactive)	> 100 µM (inactive)	> 100 µM (inactive)	20 µM (inactive)	> 100 µM (inactive)	> 100 µM (inactive)	> 100 µM (inactive)	> 100 µM (inactive)	> 100 µM (inactive)	> 100 µM (inactive)	> 100 µM (inactive)	66.4 µM (inactive)	> 100 µM (inactive)
CC(CN(C)C)C(=O)/C=C/c1ccc(Cl)c(Cl)c1 (stereo not drawn)	0.766 µM (active)	1.87 µM (inactive)	0.453 µM (active)	1590 nM	1.62 µM (inactive)	1.67 µM (inactive)	3.01 µM (inactive)	1.31 µM (inactive)	2.09 µM (inactive)	1.73 µM (inactive)	1.78 µM (inactive)	4.76 µM (inactive)	2.06 µM (inactive)	12.6 µM (inactive)	3.44 µM (inactive)	1.46 µM (inactive)	2.02 µM (inactive)	1.26 µM (inactive)	1.8 µM (inactive)
O=c1[nH]nc(-c2ccccc2)c2[nH]c3c(c12)CCCc1ccccc1-3	14.2 µM (inactive)	11.9 µM (inactive)	14 µM (inactive)	2340 nM	20.9 µM (inactive)	11.3 µM (inactive)	12.8 µM (inactive)	10.2 µM (inactive)	16.8 µM (inactive)	15.9 µM (inactive)	19.3 µM (inactive)	12.9 µM (inactive)	18.7 µM (inactive)	15.6 µM (inactive)	20.7 µM (inactive)	17.2 µM (inactive)	19.4 µM (inactive)	11.4 µM (inactive)	11.7 µM (inactive)
Cc1ccc(/N=N/c2ccc(N)cc2C)c(S(N)(=O)=O)c1	> 100 µM (inactive)	90.6 µM (inactive)	48.1 µM (inactive)	71400 nM	29.6 µM (inactive)	82.4 µM (inactive)	75.9 µM (inactive)	> 100 µM (inactive)	> 100 µM (inactive)	> 100 µM (inactive)	50.4 µM (inactive)	> 100 µM (inactive)	> 100 µM (inactive)	> 100 µM (inactive)	56.1 µM (inactive)	> 100 µM (inactive)	48.9 µM (inactive)	> 100 µM (inactive)	88.9 µM (inactive)
Cc1ccc(S(=O)(=O)n2c3c(c4ccccc42)CCN2C(=O)C(S(=O)(=O)c4ccccc4)=CCC32)cc1 (stereo not drawn)	0.178 µM (active)	0.193 µM (active)	0.228 µM (active)	188 nM	0.233 µM (active)	0.212 µM (active)	0.202 µM (active)	0.194 µM (active)	0.175 µM (active)	0.186 µM (active)	0.164 µM (active)	0.179 µM (active)	0.23 µM (active)	0.14 µM (active)	1.79 µM (inactive)	0.191 µM (active)	0.0646 µM (active)	0.22 µM (active)	0.27 µM (active)
NS(=O)(=O)c1ccc(/N=N/c2nc3[nH]cnc(=S)c3[nH]2)cc1	0.507 µM (active)	3.1 µM (inactive)	0.0902 µM (active)	2090 nM	2.77 µM (inactive)	1.34 µM (inactive)	0.3 µM (active)	4.1 µM (inactive)	0.369 µM (active)	1.21 µM (inactive)	1.22 µM (inactive)	4.51 µM (inactive)	0.759 µM (active)	1.03 µM (active)	1.59 µM (inactive)	3.92 µM (inactive)	0.474 µM (active)	6.24 µM (inactive)	0.388 µM (active)
CCCCCCCCCCCCCCCC(=O)Nc1ccn(C2CCC(COP(=O)(O)OCC3OC(n4cc(F)c(=O)[nH]c4=O)CC3OC(C)=O)O2)c(=O)n1 (stereo not drawn)	5.14 µM (inactive)	3.14 µM (inactive)	1.47 µM (inactive)	24900 nM	11.2 µM (inactive)	11.2 µM (inactive)	6.15 µM (inactive)	16.6 µM (inactive)	13.7 µM (inactive)	29.4 µM (inactive)	19.4 µM (inactive)	14.1 µM (inactive)	34 µM (inactive)	22.4 µM (inactive)	6.71 µM (inactive)	1.03 µM (active)	24.4 µM (inactive)	12.1 µM (inactive)	10.7 µM (inactive)
